Data from patent US8030359B2, “Polymer formulations of CETP inhibitors” (Merck Sharp & Dohme Corp., priority 2006, dated 2011).
Read-outs that look alike come from different tables or passages of the source.

Key:
[1] = Phase III clinical trials, long-term outcomes study, group taking the drug compared with the control group; cited from earlier work
[2] = some patients who were taking torcetrapib; cited from earlier work
[3] = Pharmacokinetics (bioavailability) of formulations dosed to fasted Rhesus monkeys; assay type: in vivo; details: rhesus monkey, blood, 3 fasted Rhesus monkeys
Experimental: Examples of preparations of pharmaceutical formulations are provided below. Bioavailability is determined in vivo by dosing trial formulations and/or other formulations of the active pharmaceutical ingredient (API) to Rhesus monkeys (normally three monkeys per trial) at a dose of 1 mg/kg of the API and then measuring the amount of API in the serum or blood as a function of time. Comparisons are made with other formulations containing the same amount and same concentration of the API, such as a solid formulation with conventional excipients or a liquid filled gelatin capsule containing equal parts by weight of Tween 80 and Cremophor EL and varying amounts of the API. The API is any compound of Formula I to Ij, and most often is Compound H.
A formulation as described above comprised of 8.8% (w/w) Compound II, 35.2% HPMCAS-LF, 25.75% lactose monohydrate, 25.75% microcrystalline cellulose (Avicel PH 102), 3% croscarmellose sodium, 0.5% colloidal silicon dioxide, and 1% magnesium stearate was transferred to capsules (568 mg fill weight), with each capsule containing […] of Compound H. The pharmacokinetic profile of this composition was tested in a panel of 3 fasted Rhesus monkeys with a single dose of 1 mg/kg.
For comparison, a formulation containing Compound II without the polymer was made and tested, as follows. The non-polymer formulation contained 5% of Compound II, 5% SDS surfactant, 1.5% HPC-EXF, 1% croscarmellose sodium, and 87.5% lactose, and was prepared by wet granulation and used in a dry-filled capsule. The pharmacokinetic profile of this composition was measured by administering a single 1 mg/kg dose to a panel of 3 fasted Rhesus monkeys and then measuring the amount of Compound II in the blood of the monkeys for a period of at least 24 hours. […] The pharmacokinetics are not as good for the “conventional” formulation as for the polymer formulations, even though the “conventional” formulation used as a control included a surfactant.
The last 3 rows summarize pharmacokinetic data obtained by administering a single dose of the formulation at a dose of 1 mg/kg to panels of 3 fasted Rhesus monkeys and measuring the concentration of Compound II in the blood for a period of at least 24 hours. The compositions can be varied more broadly to obtain desired properties, as summarized after the table.

[4] = po, 1 mg/kg, HME tablet formulation with 8% Compound II, 28% copovidone, 4% Vitamin E TPGS, single dose 1 mg/kg
[5] = po, 1 mg/kg, HME tablet formulation with 10% Compound II, 35% copovidone, 5% Vitamin E TPGS, single dose 1 mg/kg
[6] = po, 1 mg/kg, HME tablet formulation with 12% Compound II, 42% copovidone, 6% Vitamin E TPGS, single dose 1 mg/kg
[7] = po, 1 mg/kg, spray dried polymer formulation in capsules (8.8% Compound II, 35.2% HPMCAS-LF), single dose 1 mg/kg, 24 hours
[8] = oral, non-polymer "conventional" control formulation (5% Compound II, 5% SDS, 1.5% HPC-EXF, 1% croscarmellose sodium, 87.5% lactose), wet granulation, dry-filled capsule, single 1 mg/kg dose

## CCOC(=O)N1c2ccc(C(F)(F)F)cc2[C@@H](N(Cc2cc(C(F)(F)F)cc(C(F)(F)F)c2)C(=O)OC)C[C@H]1CC [torcetrapib]
[1]
  mortality versus control group: increase in mortality
[2]
  effect on blood pressure: increase blood pressure

## COc1cc(F)c(C(C)C)cc1-c1ccc(C(F)(F)F)cc1CN1C(=O)O[C@H](c2cc(C(F)(F)F)cc(C(F)(F)F)c2)[C@@H]1C [Compound II, (4S,5R)-5-[3,5-bis(trifluoromethyl)phenyl]-3-{[4′-fluoro-5′-isopropyl-2′-methoxy-4-(trifluoromethyl)biphenyl-2-yl]methyl}-4-methyl-1,3-oxazolidin-2-one]
[3]; [4]
  Cmax: 100 ± 10 nM
  Tmax: 4 ± 2 h
[3]; po, 1 mg/kg, HME tablet formulation with 8% Compound II, 28% copovidone, 4% Vitamin E TPGS, single dose 1 mg/kg, read-out: AUC (0-24 hrs)
  AUC(0-t): 1.73 ± 0.28 µM·h
[3]; [5]
  Cmax: 100 ± 10 nM
  Tmax: 5.3 ± 2 h
[3]; po, 1 mg/kg, HME tablet formulation with 10% Compound II, 35% copovidone, 5% Vitamin E TPGS, single dose 1 mg/kg, read-out: AUC (0-24 hrs)
  AUC(0-t): 1.62 ± 0.27 µM·h
[3]; [6]
  Cmax: 130 ± 10 nM
  Tmax: 6.7 ± 1.2 h
[3]; po, 1 mg/kg, HME tablet formulation with 12% Compound II, 42% copovidone, 6% Vitamin E TPGS, single dose 1 mg/kg, read-out: AUC (0-24 hrs)
  AUC(0-t): 2.29 ± 0.21 µM·h
[3]; [7]
  Cmax: 120 ± 80 nM
  Tmax: 6.7 ± 2.3 h
[3]; po, 1 mg/kg, spray dried polymer formulation in capsules (8.8% Compound II, 35.2% HPMCAS-LF), single dose 1 mg/kg, 24 hours, read-out: AUC0-24
  AUC(0-t): 1.99 ± 1.1 µM·h
[3]; [8]
  Cmax: 40 ± 30 nM
  Tmax: 18.7 ± 9.2 h
